Molecular target: bovine cardiac myosin (Bos taurus (Bovine), UniProt Q9BE39)
Test: Myosin inhibitory potency: PK/LDH-coupled ATPase assay on bovine skinned cardiac myofibrils
Type: biochemical
Settings: pCa=6.25, 50 μM ATP, 25° C., read-out: myosin inhibition activity IC50
Method: The average rates of ATPase inhibition, and the IC50 values are determined by Victor Nivo multimode plate reader (PerkinElmer, USA).
As to the assays background, a biochemical assay couples the ATPase activity of bovine cardiac myosin to an enzymatic coupling system consisting of pyruvate kinase and lactate dehydrogenase (PK/LDH) and monitoring the absorbance decrease of NADH (at 340 nm) as a function of time to measure the inhibitory ability of small molecule agents. In the assay, PK converts ADP (Adenosine diphosphate) to ATP (adenosine triphosphate) by converting PEP (phosphoenolpyruvate) to pyruvate. Pyruvate is then converted to lactate by LDH by converting NADH (nicotinamide adenine dinucleotide) to NAD (oxidized nicotinamide adenine dinucleotide).
In our experiments, bovine skinned cardiac myofibrils were isolated from the frozen bovine left ventricle as myosin's source in the ATPase assay. The calcium concentration that achieves a 50% (pCa50 or pCa=6.25) activation of the myofibril system was chosen as the final condition for assessing the activation activity according to the literature (DOI: 10.1074/jbc.M117.776815). Myofibrils ATPase activity was measured in a buffered solution containing 12 mM PIPES (piperazine-N, N′-bis(2-ethane sulfonic acid) and 2 mM magnesium chloride at pH 6.8 (PM12 buffer). Final assay conditions were 1 mg/mL of bovine cardiac myofibrils, 1:20 of stock PK/LDH (Sigma-Aldrich, Cat No. P0294-5X5ML), 50 μM ATP, 1 mM DTT (dithiothreitol), 0.75 mM NADH, 1.5 mM PEP at pCa50 (pCa=6.25). Compounds were dissolved in DMSO (dimethyl sulfoxide). Serial dilution of compounds was created such that the final desired concentration of compound would be achieved in a volume of 150 μL with a fixed DMSO concentration of 2% (v/v). 75 μL of a solution containing bovine cardiac myofibrils, PK/LDH, and calcium were added to a 96 well plate for a 7 point dose-response. In some circumstances, 10 point-response was used to repeat the ATPase assays on compounds of interest. Compounds were added to the myofibrils solution and incubated for 5 minutes. The enzymatic reaction was started with the addition of 75 μL of a solution containing ATP, PEP, NADH, compounds, and calcium. The ATPase activity was measured by reading absorbance at 340 nm in a PerkinElmer Victor Nivo plate reader at 25° C. in kinetic mode for 15 minutes using clear bottom plates. The slopes of the absorbance changes as a function of time for the first 10 minutes were normalized to slopes on the control wells containing all reagents, including DMSO, but without compounds. This normalized rate was then plotted as a function of small molecule concentration in GraphPad prism 9. The data were fitted to a four-parameter fit, and IC50 was calculated using Graphpad Prism 9.

Chain of bovine cardiac myosin (Q9BE39 whole entry): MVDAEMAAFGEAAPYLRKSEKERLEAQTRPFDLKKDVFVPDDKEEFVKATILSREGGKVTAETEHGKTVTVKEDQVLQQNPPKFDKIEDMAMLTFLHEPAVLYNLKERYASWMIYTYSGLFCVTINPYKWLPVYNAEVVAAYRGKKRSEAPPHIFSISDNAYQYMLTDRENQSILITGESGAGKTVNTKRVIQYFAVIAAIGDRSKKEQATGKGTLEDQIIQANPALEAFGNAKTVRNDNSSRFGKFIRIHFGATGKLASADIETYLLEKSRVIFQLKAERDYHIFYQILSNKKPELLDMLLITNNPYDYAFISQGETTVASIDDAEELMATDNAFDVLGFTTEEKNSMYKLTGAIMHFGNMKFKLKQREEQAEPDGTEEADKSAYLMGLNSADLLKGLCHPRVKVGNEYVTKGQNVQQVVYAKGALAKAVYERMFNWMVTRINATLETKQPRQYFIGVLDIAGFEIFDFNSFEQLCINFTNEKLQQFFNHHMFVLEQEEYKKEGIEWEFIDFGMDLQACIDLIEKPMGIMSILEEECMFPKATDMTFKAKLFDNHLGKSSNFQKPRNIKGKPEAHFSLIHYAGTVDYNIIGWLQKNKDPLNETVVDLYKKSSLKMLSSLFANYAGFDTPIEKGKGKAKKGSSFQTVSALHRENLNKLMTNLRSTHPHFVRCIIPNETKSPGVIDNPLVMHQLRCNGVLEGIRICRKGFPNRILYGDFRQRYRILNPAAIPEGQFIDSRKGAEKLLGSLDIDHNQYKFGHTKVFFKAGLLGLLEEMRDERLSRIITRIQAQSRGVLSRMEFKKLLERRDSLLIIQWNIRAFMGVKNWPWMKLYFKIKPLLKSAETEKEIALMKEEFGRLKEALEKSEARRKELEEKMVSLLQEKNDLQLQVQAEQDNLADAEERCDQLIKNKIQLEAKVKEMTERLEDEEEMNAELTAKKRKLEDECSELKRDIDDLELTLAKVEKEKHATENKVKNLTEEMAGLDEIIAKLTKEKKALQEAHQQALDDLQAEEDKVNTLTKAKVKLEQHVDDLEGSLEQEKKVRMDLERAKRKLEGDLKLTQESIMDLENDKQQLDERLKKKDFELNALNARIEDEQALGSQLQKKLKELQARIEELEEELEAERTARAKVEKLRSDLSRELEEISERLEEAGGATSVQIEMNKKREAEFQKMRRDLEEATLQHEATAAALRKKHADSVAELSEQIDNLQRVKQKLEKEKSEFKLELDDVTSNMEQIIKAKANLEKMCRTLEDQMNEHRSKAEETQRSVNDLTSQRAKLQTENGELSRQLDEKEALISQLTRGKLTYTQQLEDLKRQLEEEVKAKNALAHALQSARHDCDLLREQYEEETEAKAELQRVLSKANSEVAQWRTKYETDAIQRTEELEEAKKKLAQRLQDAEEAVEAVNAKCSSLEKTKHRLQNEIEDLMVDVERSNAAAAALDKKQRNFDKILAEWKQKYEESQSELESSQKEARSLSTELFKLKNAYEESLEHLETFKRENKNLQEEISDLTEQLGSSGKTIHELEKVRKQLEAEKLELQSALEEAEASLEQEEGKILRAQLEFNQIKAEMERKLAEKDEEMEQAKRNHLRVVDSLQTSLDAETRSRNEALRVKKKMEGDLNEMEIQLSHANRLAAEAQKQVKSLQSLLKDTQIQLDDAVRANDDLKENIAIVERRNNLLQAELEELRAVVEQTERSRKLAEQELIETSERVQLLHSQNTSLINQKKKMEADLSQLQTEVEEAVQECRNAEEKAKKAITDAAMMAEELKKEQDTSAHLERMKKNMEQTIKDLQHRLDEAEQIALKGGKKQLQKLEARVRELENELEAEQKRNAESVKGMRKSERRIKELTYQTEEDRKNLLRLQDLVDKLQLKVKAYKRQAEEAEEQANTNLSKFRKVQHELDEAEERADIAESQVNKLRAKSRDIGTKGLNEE
Chain of bovine cardiac myosin (P85100 whole entry partner): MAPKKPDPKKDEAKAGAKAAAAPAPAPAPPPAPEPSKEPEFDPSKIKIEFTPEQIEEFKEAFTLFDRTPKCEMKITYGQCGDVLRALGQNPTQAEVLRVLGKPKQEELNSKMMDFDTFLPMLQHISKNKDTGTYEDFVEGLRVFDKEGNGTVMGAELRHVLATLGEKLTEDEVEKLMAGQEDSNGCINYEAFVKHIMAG
Chain of bovine cardiac myosin (Q3SZE5 whole entry partner): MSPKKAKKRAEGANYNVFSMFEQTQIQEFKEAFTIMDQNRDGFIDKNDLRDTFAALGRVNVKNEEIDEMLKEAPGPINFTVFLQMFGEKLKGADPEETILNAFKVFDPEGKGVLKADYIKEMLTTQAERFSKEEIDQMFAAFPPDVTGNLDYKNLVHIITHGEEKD

IC50	Structure (SMILES)
1.07 µM	C[C@H](Nc1nc(=O)n([C@H]2CCOC[C@H]2F)c(=O)[nH]1)c1ccc(Cl)c(Cl)c1 [Example 321]
8.03 µM	Cc1cccc([C@H](C)Nc2nc(=O)n(C3CCCCC3)c(=O)[nH]2)c1 [Example 93]
1.75 µM	C[C@H](Nc1nc(=O)n(C2CCOCC2)c(=O)[nH]1)c1cccc(-c2ccc(F)cc2)c1 [Example 226]
0.7 µM	C[C@@H](Nc1nc(=O)n(C2CCOCC2)c(=O)[nH]1)c1ccc(C2CC2)cc1 [Example 334]
7.47 µM	Cc1cccc([C@H](C)Nc2nc(=O)n(C3CCn4nccc4C3)c(=O)[nH]2)c1 (stereo partly drawn) [Example 92]
1.27 µM	C[C@H](Nc1nc(=O)n(C2CCOCC2)c(=O)[nH]1)c1cccc(C#N)c1 [Example 327]
1.75 µM	CC(C)n1c(=O)nc(N[C@@H](C)c2ccc(OC(F)(F)F)cc2)[nH]c1=O [Example 177]
0.82 µM	C[C@H](Nc1nc(=O)n(C2CCOCC2)c(=O)[nH]1)c1cccc(-c2cnn(C)c2)c1 [Example 229]
1.5 µM	CC(O)c1cccc([C@H](C)Nc2nc(=O)n(C3CCOCC3)c(=O)[nH]2)c1 (stereo partly drawn) [Example 248]
1.47 µM	Cc1cccc([C@H](C)Nc2nc(=O)n([C@@H]3CCOC[C@@H]3F)c(=O)[nH]2)c1 [Example 315]
5.28 µM	CC[C@H](Nc1nc(=O)n(C(C)C)c(=O)[nH]1)C1CCCCC1 [Example 70]
1.08 µM	CC(C)Oc1ccc([C@H](C)Nc2nc(=O)n(C3CCOCC3)c(=O)[nH]2)cc1 [Example 43]
1.78 µM	COC[C@H](Nc1nc(=O)n(C2CCOCC2)c(=O)[nH]1)c1ccccc1 [Example 304]
1.17 µM	CC(C)n1c(=O)nc(N[C@@H](C)c2ccc(Cl)c(Cl)c2)[nH]c1=O [Example 325]
1.66 µM	C[C@H](Nc1nc(=O)n(C2CCNCC2)c(=O)[nH]1)C1CCCCC1 [Example 235]
2.21 µM	Cc1cccc([C@H](C)Nc2nc(=O)n([C@@H](C)C(F)(F)F)c(=O)[nH]2)c1 [Example 40]
1.77 µM	COC[C@H](Nc1nc(=O)n(C2CCOCC2)c(=O)[nH]1)c1ccc(F)cc1F [Example 269]
1.78 µM	C[C@H](Nc1nc(=O)n(C2CCOCC2)c(=O)[nH]1)c1cccc(-n2ccnc2)c1 [Example 200]
5.77 µM	CO[C@H]1CC[C@@H](n2c(=O)nc(N[C@@H](C)C3CCCCC3)[nH]c2=O)CC1 [Example 84]
4.83 µM	O=c1nc(NC(CF)c2ccccc2)[nH]c(=O)n1C1CCCCC1 (stereo not drawn) [Example 142]
0.45 µM	C[C@H](Nc1nc(=O)n([C@H]2CC[C@H](F)CC2)c(=O)[nH]1)C1CCCCC1 [Example 87]
1.87 µM	CC(C)n1c(=O)nc(N[C@@H](C)c2cccc(C(C)(C)O)c2)[nH]c1=O [Example 307]

IC50	Structure (SMILES)
3.95 µM	CC[C@H](Nc1nc(=O)n(C2CCOCC2)c(=O)[nH]1)C1CCCCC1 [Example 116]
1.61 µM	C[C@H](Nc1nc(=O)n([C@@H]2CCOC[C@@H]2F)c(=O)[nH]1)c1cccc(C(F)(F)F)c1 [Example 309]
2.62 µM	CC(Nc1nc(=O)n(C2CCOCC2)c(=O)[nH]1)c1ccccc1F (stereo not drawn) [Example 121]
1.6 µM	C[C@H](Nc1nc(=O)n(C2CCOCC2)c(=O)[nH]1)c1ccc(C(C)(C)C)cc1 [Example 160]
2.04 µM	Cc1c(-c2cccc([C@H](C)Nc3nc(=O)n(C4CCOCC4)c(=O)[nH]3)c2)cnn1C [Example 197]
1.39 µM	C[C@H](Nc1nc(=O)n([C@@H](C)C(F)(F)F)c(=O)[nH]1)c1cccc(C(F)(F)F)c1 [Example 332]
1.05 µM	Cc1ccc([C@H](C)Nc2nc(=O)n(C3CCOCC3)c(=O)[nH]2)cc1F [Example 161]
9 µM	CC(Nc1nc(=O)n(C2CCOCC2)c(=O)[nH]1)C1CC2(CCC2)C1 (stereo not drawn) [Example 110]
3.77 µM	CC(Nc1nc(=O)n(C2CCN(C(=O)OC(C)(C)C)CC2)c(=O)[nH]1)c1ccc(C(F)(F)F)cc1 (stereo not drawn) [Example 145]
2.31 µM	O=c1nc(N[C@H](c2ccc(F)cc2F)C(F)F)[nH]c(=O)n1C1CCOCC1 [Example 263]
1.23 µM	Cc1cccc([C@H](C)Nc2nc(=O)n(C3CCN(S(C)(=O)=O)CC3)c(=O)[nH]2)c1 [Example 244]
2.19 µM	Cc1cccc([C@H](C)Nc2nc(=O)n([C@H](C)C(F)(F)F)c(=O)[nH]2)c1 [Example 41]
1.3 µM	C[C@H](Nc1nc(=O)n(C2CCOCC2)c(=O)[nH]1)c1c(F)cccc1Cl [Example 13]
1.95 µM	C[C@H](Nc1nc(=O)n(C2CCOCC2)c(=O)[nH]1)c1cccc(C2CCNCC2)c1 [Example 209]
3.62 µM	C[C@H](Nc1nc(=O)n([C@@H](C)C(F)(F)F)c(=O)[nH]1)c1cccc(F)c1 [Example 179]
9.1 µM	Cc1cccc([C@H](C)Nc2nc(=O)n(CC(F)(F)F)c(=O)[nH]2)c1 [Example 42]
1.58 µM	CC(Nc1nc(=O)n(C2CCOCC2)c(=O)[nH]1)c1cccc(Br)c1 (stereo not drawn) [Example 120]
0.58 µM	CC(=O)N1CC(c2cccc([C@H](C)Nc3nc(=O)n(C4CCOCC4)c(=O)[nH]3)c2)C1 [Example 273]
0.85 µM	CC(C)c1ccc([C@H](C)Nc2nc(=O)n(C3CCOCC3)c(=O)[nH]2)cc1 [Example 328]
2.53 µM	C[C@H](Nc1nc(=O)n(C2CCOCC2)c(=O)[nH]1)c1cccc(-c2ccncc2)c1 [Example 221]
0.36 µM	C[C@H](Nc1nc(=O)n(C2CCOCC2)c(=O)[nH]1)c1cccc(C2CN(CC(F)(F)F)C2)c1 [Example 288]
0.95 µM	C[C@H](Nc1nc(=O)n(C2CCOCC2)c(=O)[nH]1)c1ccc(Cl)cc1 [Example 251]

IC50	Structure (SMILES)
1.36 µM	CC(C)n1c(=O)nc(N[C@@H](C)c2cccc(C3CCOCC3)c2)[nH]c1=O [Example 295]
1.21 µM	Cc1noc(C)c1-c1cccc([C@H](C)Nc2nc(=O)n(C3CCOCC3)c(=O)[nH]2)c1 [Example 198]
1.18 µM	CO[C@@H]1COCC[C@H]1n1c(=O)nc(N[C@@H](C)c2cccc(C)c2)[nH]c1=O [Example 299]
8.4 µM	CC(Nc1nc(=O)n(C2CCOCC2)c(=O)[nH]1)c1ccc(F)cc1 (stereo not drawn) [Example 125]
2.49 µM	CC(Nc1nc(=O)n(C2CCOCC2)c(=O)[nH]1)c1ccc(C(F)(F)F)cc1 (stereo not drawn) [Example 131]
0.91 µM	COc1cc([C@H](C)Nc2nc(=O)n(C3CCOCC3)c(=O)[nH]2)ccc1F [Example 171]
3.4 µM	CC(Nc1nc(=O)n(C2CCOCC2)c(=O)[nH]1)c1ccccc1Br (stereo not drawn) [Example 119]
0.49 µM	C[C@H](Nc1nc(=O)n(C2CCOCC2)c(=O)[nH]1)c1cccc(OC(F)(F)F)c1 [Example 202]
9.35 µM	Cc1cccc([C@H](C)Nc2nc(=O)n(C3CCOCC3(C)C)c(=O)[nH]2)c1 (stereo partly drawn) [Example 99]
2.65 µM	CC(=O)N1CCC(n2c(=O)nc(N[C@@H](C)C3CCCCC3)[nH]c2=O)CC1 [Example 236]
1.45 µM	COCCN1CCC(n2c(=O)nc(N[C@@H](C)c3cccc(C)c3)[nH]c2=O)CC1 [Example 38]
1.81 µM	COCC(Nc1nc(=O)n(C(C)C)c(=O)[nH]1)c1cc(C)ccc1F (stereo not drawn) [Example 275]
1.77 µM	C[C@H](Nc1nc(=O)n(C2CCOCC2)c(=O)[nH]1)c1cc(Cl)cc(Cl)c1 [Example 151]
1.83 µM	CC(Nc1nc(=O)n(C2CCOCC2)c(=O)[nH]1)c1cc(F)ccc1F (stereo not drawn) [Example 127]
1.22 µM	C[C@@H](Nc1nc(=O)n(C2CCOCC2)c(=O)[nH]1)c1cccc(C2CC2)c1 [Example 306]
1.06 µM	C[C@H](Nc1nc(=O)n([C@@H](C)C(F)(F)F)c(=O)[nH]1)c1ccc(Cl)c(Cl)c1 [Example 324]
0.88 µM	Cc1ccc(F)c([C@H](C)Nc2nc(=O)n([C@H](C)C(F)(F)F)c(=O)[nH]2)c1 [Example 302]
0.24 µM	CC(C#N)c1cccc([C@H](C)Nc2nc(=O)n(C3CCOCC3)c(=O)[nH]2)c1 (stereo partly drawn) [Example 277]
1.17 µM	C[C@H](Nc1nc(=O)n([C@@H](C)C(F)(F)F)c(=O)[nH]1)C1CCCCC1 [Example 14]
0.47 µM	C[C@H](Nc1nc(=O)n(C2CCOCC2)c(=O)[nH]1)c1ccccc1Cl [Example 159]
0.55 µM	O=c1nc(N[C@H](c2cccc(Br)c2)C(F)F)[nH]c(=O)n1C1CCOCC1 [Example 270]
0.85 µM	C[C@H](Nc1nc(=O)n(C2CCOCC2)c(=O)[nH]1)c1cccc([C@H](O)C(F)(F)F)c1 [Example 291]
